According to the CheMixHub drug solubility set:

Assay: xn = mol fraction of the nth substance listed, in the solute-free solvent

Nc1cncc(Cl)n1 + CN(C)C=O + O
solubility (g/100 g solution)
Settings	278.15 K	283.15 K	288.15 K	293.15 K	298.15 K	303.15 K	308.15 K	313.15 K	318.15 K	323.15 K
x2 = 0.02666	–	–	–	–	–	–	–	–	–	0.136
x2 = 0.05806	–	–	–	–	–	–	–	–	–	0.386
x2 = 0.09556	0.711	0.836	0.963	1.12	1.29	1.5	1.71	1.95	2.21	2.52
x2 = 0.1412	1	1.18	1.36	1.59	1.83	2.13	2.43	2.78	3.15	3.58
x2 = 0.1978	1.13	1.35	1.6	1.86	2.18	2.55	2.94	3.38	3.84	4.38
x2 = 0.27	1.26	1.53	1.81	2.13	2.52	2.94	3.38	3.91	4.51	5.2
x2 = 0.3652	1.39	1.68	2.03	2.4	2.83	3.31	3.89	4.51	5.18	5.97
x2 = 0.4965	1.5	1.85	2.23	2.67	3.17	3.69	4.34	5.06	5.84	6.7
x2 = 0.6893	1.59	1.97	2.39	2.87	3.39	3.97	4.66	5.5	6.38	7.36

CCCCOc1ccc(C(=O)CCN2CCCCC2)cc1.Cl + CCO + CCCCCC
solubility (g/100 g solution)
Settings	278.15 K	283.15 K	288.15 K	293.15 K	298.15 K	303.15 K	308.15 K	313.15 K	318.15 K	323.15 K
x2 = 0.1	2.56	2.95	3.35	3.75	4.22	4.75	5.33	5.97	6.73	7.53
x2 = 0.2	5.09	5.71	6.4	7.2	8.01	8.91	9.95	11.1	12.4	13.8
x2 = 0.3	7.84	8.72	9.72	10.8	12	13.4	14.9	16.6	18.4	20.3
x2 = 0.4	10.6	11.8	13.1	14.6	16.2	17.9	19.8	21.8	24	26.4
x2 = 0.5	13.7	15.2	16.8	18.6	20.5	22.6	24.8	27.3	29.9	32.6
x2 = 0.6	16.8	18.8	20.6	22.7	25	27.3	29.9	32.6	35.5	38.5
x2 = 0.7	20.3	22.4	24.6	27	29.4	32	35	37.9	41	44.1
x2 = 0.8	23.9	26.3	28.7	31.4	34.1	36.8	39.8	43	46.3	49.5
x2 = 0.9	27.7	30.4	33	35.8	38.8	41.8	45	48.3	51.6	54.9

CC(=O)NC(CCC(N)=O)C(=O)O (centres undefined) + O + CCO
solubility (g/100 g solution)
Settings	293.15 K	298.15 K	303.15 K	308.15 K	313.15 K	318.15 K
x2 = 0.2647	0.629	0.869	0.998	1.29	1.49	1.75
x2 = 0.4475	1.45	1.76	2.23	2.56	2.78	3.17
x2 = 0.7641	3.01	3.62	4.93	6.04	7.27	8.61
x2 = 0.8293	2.93	3.69	4.49	5.32	6.47	7.52
x2 = 0.9284	3.11	3.48	4.31	5.04	6.17	7.23

Nc1cncc(Cl)n1 + CCO + O
solubility (g/100 g solution)
Settings	278.15 K	283.15 K	288.15 K	293.15 K	298.15 K	303.15 K	308.15 K	313.15 K	318.15 K	323.15 K
x2 = 0.04165	0.0437	0.053	0.0624	0.075	0.0883	0.106	0.124	0.145	0.168	0.197
x2 = 0.08908	0.071	0.0856	0.101	0.12	0.141	0.17	0.198	0.23	0.267	0.313
x2 = 0.1436	0.11	0.132	0.155	0.185	0.217	0.259	0.302	0.35	0.405	0.476
x2 = 0.2068	0.161	0.193	0.226	0.27	0.316	0.376	0.438	0.508	0.588	0.691
x2 = 0.2812	0.21	0.253	0.299	0.358	0.419	0.501	0.589	0.681	0.792	0.934
x2 = 0.3698	0.277	0.332	0.392	0.469	0.548	0.654	0.765	0.889	1.03	1.23
x2 = 0.4772	0.337	0.404	0.479	0.573	0.677	0.806	0.943	1.1	1.28	1.51
x2 = 0.6101	0.374	0.451	0.544	0.654	0.776	0.918	1.08	1.26	1.48	1.77
x2 = 0.7788	0.399	0.482	0.579	0.7	0.826	0.99	1.16	1.38	1.62	1.94

O=C(O)c1cc([N+](=O)[O-])ccc1O + CCCO + O
solubility (g/100 g solution)
Settings	278.15 K	283.15 K	288.15 K	293.15 K	298.15 K	303.15 K	308.15 K	313.15 K	318.15 K	323.15 K
x2 = 0.03225	0.0803	0.104	0.134	0.171	0.216	0.26	0.316	0.38	0.458	0.542
x2 = 0.06974	0.189	0.227	0.294	0.366	0.45	0.559	0.678	0.817	1.01	1.24
x2 = 0.1139	0.45	0.55	0.689	0.87	1.08	1.3	1.55	1.79	2.07	2.41
x2 = 0.1666	0.839	1.02	1.3	1.63	2.02	2.42	2.82	3.28	3.77	4.3
x2 = 0.2307	1.52	1.91	2.38	2.94	3.59	4.22	4.85	5.61	6.41	7.29
x2 = 0.3103	2.34	2.82	3.45	4.11	4.94	5.73	6.68	7.75	8.82	10.2
x2 = 0.4117	3.55	4.17	4.92	5.66	6.64	7.67	8.85	9.98	11.2	12.6
x2 = 0.5454	4.75	5.34	6.09	7.02	8.12	9.33	10.6	12	13.4	15.1
x2 = 0.7297	5.59	6.57	7.78	8.73	9.96	11.3	12.4	13.8	15.2	16.8

O=C1CCc2ccc(OCCCCN3CCN(c4cccc(Cl)c4Cl)CC3)cc2N1 + CCC(C)=O + CCOC(C)=O
solubility (g/100 g solution)
Settings	278.15 K	283.15 K	288.15 K	293.15 K	298.15 K	303.15 K	308.15 K	313.15 K	318.15 K
x2 = 0.1	0.601	0.745	0.882	1.04	1.24	1.57	1.88	2.26	2.76
x2 = 0.2	0.641	0.794	0.953	1.12	1.37	1.74	2.08	2.45	2.98
x2 = 0.3	0.681	0.845	1.04	1.22	1.48	1.91	2.28	2.68	3.24
x2 = 0.4	0.73	0.907	1.14	1.32	1.61	2.06	2.48	2.92	3.53
x2 = 0.5	0.778	0.975	1.23	1.44	1.75	2.22	2.66	3.16	3.8
x2 = 0.6	0.825	1.05	1.32	1.57	1.89	2.39	2.86	3.4	4.12
x2 = 0.7	0.879	1.13	1.43	1.69	2.03	2.55	3.04	3.65	4.42
x2 = 0.8	0.948	1.22	1.53	1.83	2.18	2.72	3.25	3.87	4.75
x2 = 0.9	1.04	1.34	1.63	1.98	2.36	2.91	3.48	4.12	5.04

O=C(O)c1ccc(C(=O)O)o1 + C1COCCO1 + O
solubility (g/100 g solution)
Settings	303.15 K	308.15 K	313.15 K	318.15 K	323.15 K	328.15 K	333.15 K	338.15 K	343.15 K
x2 = 0.1	1.85	1.98	2.15	2.38	2.63	2.92	3.24	3.48	3.73
x2 = 0.2	3.44	3.54	3.81	4.02	4.28	4.56	4.78	5.12	5.5
x2 = 0.3	3.8	4.14	4.34	4.76	5.21	5.62	6.07	6.46	7.05
x2 = 0.4	4.76	5.23	5.55	5.79	6.04	6.37	6.72	7.27	7.87
x2 = 0.5	4.37	4.77	5.03	5.38	5.75	6.1	6.48	6.97	7.5
x2 = 0.6	3.77	4.11	4.39	4.66	5	5.3	5.63	6.04	6.44
x2 = 0.7	3.03	3.32	3.51	3.71	3.94	4.25	4.48	4.89	5.36
x2 = 0.8	2.38	2.62	2.75	2.96	3.11	3.32	3.55	3.81	4.1
x2 = 0.9	1.3	1.42	1.54	1.73	1.93	2.11	2.35	2.61	2.87
